In paper PMC9115913 (Biological chemistry, 2022):
In brackets after ≈: the same amount, converted by molar mass. Several values for one entry are separate records, joined by “and”; a condition that tells them apart may be missing. Equal values may be shown once. Read-outs that look alike come from different tables or passages of the source.

Tests used:
[1] = test system: S. pneumoniae IU1945; test: Antimicrobial susceptibility assay; assay type: cell-based; conditions: Streptococcus pneumoniae
[2] = target: PBP1a (Streptococcus pneumoniae, UniProt Q8DR59); test: cell-based; assay type: binding; conditions: IC50 PBPla
[3] = target: PBP1b (Streptococcus pneumoniae, UniProt Q7CRA4); assay type: binding; conditions: read-out: IC50 PBP1b
[4] = target: PBP2x (Streptococcus pneumoniae, UniProt P59676); test: cell-based; assay type: binding
[5] = target: PBP2a (Streptococcus pneumoniae, UniProt Q8DNB6); test: cell-based; assay type: binding
[6] = target: PBP2b (Streptococcus pneumoniae, UniProt P0A3M6); test: cell-based; assay type: binding
[7] = target: T1, PBP3 (Streptococcus pneumoniae, UniProt Q8DQ99); conditions: read-out: IC50 PBP3
T1 sequence (Q8DQ99 23-413): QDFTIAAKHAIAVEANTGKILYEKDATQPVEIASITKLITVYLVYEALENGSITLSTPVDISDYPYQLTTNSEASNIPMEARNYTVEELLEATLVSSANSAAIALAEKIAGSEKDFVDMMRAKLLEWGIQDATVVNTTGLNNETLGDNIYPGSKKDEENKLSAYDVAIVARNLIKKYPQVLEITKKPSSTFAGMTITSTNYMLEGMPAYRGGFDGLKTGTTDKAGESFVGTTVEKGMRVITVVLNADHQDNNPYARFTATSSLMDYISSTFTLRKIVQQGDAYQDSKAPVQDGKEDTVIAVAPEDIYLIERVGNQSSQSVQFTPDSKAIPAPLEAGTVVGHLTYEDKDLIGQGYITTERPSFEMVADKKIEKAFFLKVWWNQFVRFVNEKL

[8] = test system: penicillin-binding proteins (PBPs); conditions: S. pneumoniae, previous assessment; ref Kocaoglu et al. 2015; cited from earlier work
[9] = test system: penicillin-binding proteins (PBPs); conditions: line of the Δpbp1b mutant strain; 4-fold rule
[10] = strain IU1945, average ± SEM of two experiments
[11] = Δpbp1b mutant strain, average ± SEM
[12] = Δpbp1a mutant strain, average ± SEM

PBP2b, sequence (P0A3M6 whole entry): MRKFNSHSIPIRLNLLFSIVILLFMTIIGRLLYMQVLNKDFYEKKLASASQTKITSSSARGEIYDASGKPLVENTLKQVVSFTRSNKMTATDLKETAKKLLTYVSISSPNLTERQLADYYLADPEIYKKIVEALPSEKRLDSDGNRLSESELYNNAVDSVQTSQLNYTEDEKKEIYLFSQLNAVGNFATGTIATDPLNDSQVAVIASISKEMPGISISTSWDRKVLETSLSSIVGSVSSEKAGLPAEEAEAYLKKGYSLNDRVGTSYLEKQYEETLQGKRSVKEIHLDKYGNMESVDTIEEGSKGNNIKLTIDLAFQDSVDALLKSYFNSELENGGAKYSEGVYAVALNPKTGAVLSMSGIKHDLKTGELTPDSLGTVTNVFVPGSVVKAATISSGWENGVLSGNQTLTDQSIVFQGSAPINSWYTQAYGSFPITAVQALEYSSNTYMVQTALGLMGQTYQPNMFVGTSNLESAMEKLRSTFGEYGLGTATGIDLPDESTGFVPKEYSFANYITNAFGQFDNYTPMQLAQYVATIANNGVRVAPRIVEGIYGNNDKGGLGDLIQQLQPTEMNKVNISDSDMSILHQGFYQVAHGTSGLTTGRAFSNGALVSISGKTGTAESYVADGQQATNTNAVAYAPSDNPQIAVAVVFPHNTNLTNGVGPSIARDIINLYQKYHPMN
PBP1a, sequence (Q8DR59 whole entry): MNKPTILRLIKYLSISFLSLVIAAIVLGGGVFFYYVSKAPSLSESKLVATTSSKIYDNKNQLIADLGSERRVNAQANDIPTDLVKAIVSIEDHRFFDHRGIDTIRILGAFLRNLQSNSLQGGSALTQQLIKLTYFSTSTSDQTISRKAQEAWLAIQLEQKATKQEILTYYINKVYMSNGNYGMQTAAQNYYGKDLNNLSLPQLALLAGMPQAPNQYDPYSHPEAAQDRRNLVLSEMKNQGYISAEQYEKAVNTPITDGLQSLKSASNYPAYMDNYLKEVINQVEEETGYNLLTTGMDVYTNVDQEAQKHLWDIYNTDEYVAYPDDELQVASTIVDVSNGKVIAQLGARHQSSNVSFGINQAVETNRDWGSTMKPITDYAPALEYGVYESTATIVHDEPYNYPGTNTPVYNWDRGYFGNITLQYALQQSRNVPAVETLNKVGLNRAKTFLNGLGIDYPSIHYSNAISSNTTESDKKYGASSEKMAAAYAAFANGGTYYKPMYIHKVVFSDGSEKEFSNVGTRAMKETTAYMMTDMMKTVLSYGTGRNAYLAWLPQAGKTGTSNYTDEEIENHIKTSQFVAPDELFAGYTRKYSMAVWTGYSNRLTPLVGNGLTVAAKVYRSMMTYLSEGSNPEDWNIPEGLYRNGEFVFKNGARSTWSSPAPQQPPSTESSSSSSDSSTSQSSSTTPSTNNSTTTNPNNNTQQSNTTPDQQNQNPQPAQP
PBP2x, sequence (P59676 whole entry): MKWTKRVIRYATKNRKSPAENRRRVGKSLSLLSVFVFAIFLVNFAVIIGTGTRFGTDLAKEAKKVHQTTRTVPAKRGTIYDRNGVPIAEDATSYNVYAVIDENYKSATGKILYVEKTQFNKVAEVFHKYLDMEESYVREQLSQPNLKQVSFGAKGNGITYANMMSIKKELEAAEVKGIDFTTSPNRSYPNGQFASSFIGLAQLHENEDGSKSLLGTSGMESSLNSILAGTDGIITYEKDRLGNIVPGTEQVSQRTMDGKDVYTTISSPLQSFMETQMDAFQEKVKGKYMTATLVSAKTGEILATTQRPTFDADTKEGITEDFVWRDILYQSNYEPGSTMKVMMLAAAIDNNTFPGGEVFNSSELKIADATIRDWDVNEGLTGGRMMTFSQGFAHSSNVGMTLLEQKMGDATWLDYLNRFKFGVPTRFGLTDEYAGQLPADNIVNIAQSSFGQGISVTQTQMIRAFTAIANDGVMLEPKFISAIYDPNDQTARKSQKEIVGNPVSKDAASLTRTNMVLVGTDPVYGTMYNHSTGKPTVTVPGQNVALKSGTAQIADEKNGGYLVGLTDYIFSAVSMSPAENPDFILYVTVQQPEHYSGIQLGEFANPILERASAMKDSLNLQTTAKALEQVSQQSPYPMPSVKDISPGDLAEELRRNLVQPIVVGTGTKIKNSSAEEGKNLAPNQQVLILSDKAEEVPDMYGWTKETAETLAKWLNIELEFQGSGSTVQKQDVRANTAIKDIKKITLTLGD
PBP2a, sequence (Q8DNB6 whole entry): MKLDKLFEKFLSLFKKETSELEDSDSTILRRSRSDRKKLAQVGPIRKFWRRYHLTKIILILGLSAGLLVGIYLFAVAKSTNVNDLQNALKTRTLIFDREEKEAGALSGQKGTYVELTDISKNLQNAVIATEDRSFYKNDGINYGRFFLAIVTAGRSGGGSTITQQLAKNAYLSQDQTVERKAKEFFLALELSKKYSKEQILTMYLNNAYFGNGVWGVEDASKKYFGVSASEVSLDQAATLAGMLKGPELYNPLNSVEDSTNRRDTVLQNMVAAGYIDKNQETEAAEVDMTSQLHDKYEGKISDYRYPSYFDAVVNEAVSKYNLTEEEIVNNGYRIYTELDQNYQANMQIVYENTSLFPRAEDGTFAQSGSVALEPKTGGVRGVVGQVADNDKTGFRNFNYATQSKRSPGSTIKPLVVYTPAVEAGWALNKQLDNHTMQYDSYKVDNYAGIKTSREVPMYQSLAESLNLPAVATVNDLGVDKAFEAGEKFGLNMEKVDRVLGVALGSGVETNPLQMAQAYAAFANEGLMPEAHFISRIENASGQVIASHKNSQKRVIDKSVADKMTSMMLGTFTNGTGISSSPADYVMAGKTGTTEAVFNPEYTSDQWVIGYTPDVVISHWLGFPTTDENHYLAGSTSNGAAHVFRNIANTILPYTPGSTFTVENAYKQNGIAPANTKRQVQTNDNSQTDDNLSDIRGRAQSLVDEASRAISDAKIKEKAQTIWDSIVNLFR

| Structure (SMILES) | MIC [1] | IC50 [2, 10] | IC50 [3, 10] | IC50 [4, 10] | IC50 [5, 10] | IC50 [6, 10] | IC50 [7, 10] | IC50 [2, 11] | IC50 [3, 12] | IC50 [4, 12] | IC50 [4, 11] | IC50 [5, 12] | IC50 [5, 11] | IC50 [6, 12] | IC50 [6, 11] | IC50 [7, 12] | IC50 [7, 11] | PBP selectivity (previous report) [8] | PBP selectivity [9] |
| --- | --- | --- | --- | --- | --- | --- | --- | --- | --- | --- | --- | --- | --- | --- | --- | --- | --- | --- | --- |
| CCOc1ccc2ccccc2c1C(=O)N[C@@H]1C(=O)N2[C@@H]1SC(C)(C)[C@@H]2C(=O)O [Nafcillin, nafcillin] | 0.01 µM (≈ 4.14 ng/mL) | 94.5 ± 88.6 µM | 32.4 ± 3.78 µM | 0.014 ± 0.006 µM | 4.54 ± 1.75 µM | 1.27 ± 0.306 µM | 0.125 ± 0.061 µM |  |  |  |  |  |  |  |  |  |  |  |  |
| C[C@@H](O)[C@H]1C(=O)N2C(C(=O)O)=C(SCCN=CN)C[C@H]12 [Imipenem, imipenem] | 0.1 µM (≈ 29.9 ng/mL) | 0.027 ± 0.005 µM | 0.052 ± 0.022 µM | 0.048 ± 0.013 µM | 0.062 ± 0.021 µM | 0.052 ± 0.011 µM | 0.007 ± 0.001 µM |  |  |  |  |  |  |  |  |  |  |  |  |
| Cc1onc(-c2c(F)cccc2Cl)c1C(=O)N[C@@H]1C(=O)N2[C@@H]1SC(C)(C)[C@@H]2C(=O)O [Flucloxacillin, flucloxacillin] | 1 µM (≈ 454 ng/mL) | 12.4 ± 4.2 µM | 17.7 ± 4.16 µM | 0.83 µM and 0.832 µM | 35.3 ± 26 µM | 18.5 ± 11.1 µM | 0.91 µM and 0.911 µM | 11 ± 2.47 µM | 50.5 ± 2.03 µM | 0.889 ± 0.389 µM | 2.01 ± 0.878 µM | 16 ± 2.01 µM | 51.5 ± 5.16 µM | 16.8 ± 9.3 µM | 33.5 ± 16 µM | 0.783 ± 0.581 µM | 1.95 ± 0.884 µM |  |  |
| C[C@@H](O)[C@H]1C(=O)N2C(C(=O)O)=C(S[C@@H]3CN[C@H](C(=O)N(C)C)C3)[C@H](C)[C@H]12 [Meropenem, meropenem] |  |  |  |  |  |  |  |  |  |  |  |  |  |  |  |  |  | co-selectivity towards PBP3 along with PBP1a, but these molecules were additionally co-selective for PBP2x |  |
| COCC1=C(C(=O)O)N2C(=O)[C@@H](NC(=O)/C(=N\OC)c3csc(N)n3)[C@H]2SC1 [Cefpodoxime, cefpodoxime] | 0.01 µM (≈ 4.27 ng/mL) | 1.92 ± 0.581 µM | 0.907 ± 0.406 µM | 0.041 ± 0.015 µM | 0.341 ± 0.125 µM | 0.522 ± 0.231 µM | 0.032 ± 0.005 µM | 2.78 ± 0.886 µM | 0.301 ± 0.071 µM |  | 0.035 ± 0.018 µM | 0.621 ± 0.161 µM | 0.179 ± 0.081 µM | > 1000 µM | > 1000 µM | 0.032 ± 0.004 µM | 0.018 ± 0.004 µM |  |  |
| CC1(C)S[C@@H]2[C@H](NC(=O)[C@H](C(=O)O)c3ccsc3)C(=O)N2[C@H]1C(=O)O [Ticarcillin, ticarcillin] |  | 0.827 ± 0.365 µM | 1.01 ± 0.331 µM | 0.251 ± 0.109 µM | 7.74 ± 2.6 µM | 3.34 ± 1.48 µM | 0.146 ± 0.087 µM |  |  |  |  |  |  |  |  |  |  |  |  |
| CC1(C)S[C@@H]2[C@H](NC(=O)[C@H](NC(=O)N3CCNC3=O)c3ccccc3)C(=O)N2[C@H]1C(=O)O [Azlocillin, azlocillin] |  | 1.53 ± 0.532 µM | 0.963 ± 0.477 µM | 0.081 ± 0.018 µM | 1.4 ± 0.693 µM | 0.294 ± 0.131 µM | 0.065 ± 0.013 µM |  |  |  |  |  |  |  |  |  |  |  |  |
| C[C@@H](O)[C@H]1C(=O)N2C(C(=O)O)=C(S[C@@H]3CN[C@H](C(=O)Nc4cccc(C(=O)O)c4)C3)[C@H](C)[C@H]12 [Ertapenem, ertapenem] | 0.01 µM (≈ 4.76 ng/mL) | 0.118 ± 0.064 µM | 0.137 ± 0.375 µM | 0.752 ± 0.817 µM | 26.8 ± 4.08 µM | 13.8 ± 3.49 µM | 0.061 ± 0.043 µM | 0.038 ± 0.012 µM | 0.326 ± 0.082 µM | 0.341 ± 0.251 µM | 0.729 ± 0.122 µM |  | 6.69 ± 0.401 µM | 3.86 ± 7.4 µM | > 1000 µM | 0.012 ± 0.006 µM | 0.031 ± 0.011 µM |  | co-selectivity towards PBP3 and PBP1a and 3, la |
| Cc1onc(-c2c(Cl)cccc2Cl)c1C(=O)N[C@@H]1C(=O)N2[C@@H]1SC(C)(C)[C@@H]2C(=O)O [Dicloxacillin, dicloxacillin] | 0.01 µM (≈ 4.7 ng/mL) | 0.385 ± 0.261 µM | 1.14 ± 1.37 µM | 0.042 ± 0.055 µM | 4.84 ± 4.74 µM | 8.7 µM | 0.065 ± 0.051 µM |  |  |  |  |  |  |  |  |  |  |  |  |
